PubChem BioAssay (NCI)
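Step 1: Grow cells in 96-well plates. Step 2: Expose to compound for 48 hours at 5 concentrations. Step 3: Interpolate endpoints linearly; if unreached, use highest concentration. GI50 marks 50% less growth. At the TGI there is no net growth.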

Assays:
Test in all cases: NCI tumour cell line growth inhibition, 48 h
A549 NSCLC = tested on: A549 NSCLC
BT-549 breast = tested on: BT-549 breast
HCT-116 colon = tested on: HCT-116 colon
M14 melanoma = tested on: M14 melanoma
MDA-MB-435 = tested on: MDA-MB-435
MDA-N = tested on: MDA-N
MOLT-4 leukemia = tested on: MOLT-4 leukemia
NCI-H23 lung = tested on: NCI-H23 lung
NCI-H460 lung = tested on: NCI-H460 lung
SF-268 CNS = tested on: SF-268 CNS
SF-295 CNS = tested on: SF-295 CNS
SF-539 CNS = tested on: SF-539 CNS

Compound	TGI (A549 NSCLC)	TGI (BT-549 breast)	TGI (HCT-116 colon)	TGI (M14 melanoma)	TGI (MDA-MB-435)	TGI (MDA-N)	TGI (MOLT-4 leukemia)	TGI (NCI-H23 lung)	TGI (NCI-H460 lung)	TGI (SF-268 CNS)	TGI (SF-295 CNS)	TGI (SF-539 CNS)	GI50 (M14 melanoma)	GI50 (MDA-MB-435)	GI50 (MDA-N)	GI50 (SF-268 CNS)	GI50 (SF-295 CNS)
Cn1c(-c2ccc(/C=N\N3CCN(/N=C/c4ccc(-c5c[n+]6ccccc6n5C)cc4)CC3)cc2)c[n+]2ccccc12	> 100 µM	> 100 µM	> 100 µM	> 100 µM	> 100 µM	> 100 µM	> 100 µM	> 100 µM	> 100 µM	> 100 µM	78.6 µM	> 100 µM					
CNC(=O)c1[nH]cnc1/N=N/N(C)N	> 100 µM	> 100 µM	> 100 µM	> 100 µM	> 100 µM	> 100 µM	> 100 µM	> 100 µM	> 100 µM	> 100 µM	> 100 µM	> 100 µM					
CN(C)c1ccc(/C=C/C=C(/C#N)c2ccccc2)cc1	> 100 µM	> 100 µM	> 77 µM	> 85.1 µM	6.19 µM	5.28 µM	> 55.7 µM	97.6 µM	83.7 µM	> 100 µM	> 100 µM	64.7 µM					
CC(C)CCn1c(=O)c2c(=O)[nH][nH]c2c2ccccc21	> 100 µM	> 100 µM	> 100 µM		> 100 µM	> 100 µM		> 100 µM	> 100 µM		> 100 µM	> 100 µM					
COc1ccc(NC(=O)/C(CC2=Nc3ccc([N+](=O)[O-])cc3NC2O)=N\NC(=O)C[N+](C)(C)C)c(OC)c1 (stereo not given)	> 100 µM	> 100 µM	> 100 µM	> 100 µM	> 100 µM	> 100 µM	> 100 µM	> 100 µM	> 100 µM	> 100 µM	> 100 µM	> 100 µM					
CN(CCc1ccc(N)cc1)[C@H]1CCCC[C@H]1N1CCCC1	> 100 µM	> 100 µM	> 100 µM	> 100 µM	> 100 µM	> 100 µM	> 100 µM	> 100 µM	> 100 µM	> 100 µM	> 100 µM						
C=C1C(=O)OC2C1CC(O)/C(C)=C\CCC1(C)OC21 (stereo not given)	> 100 µM	43.2 µM	> 100 µM	64.4 µM	89.6 µM	36.2 µM	79.3 µM	> 100 µM	> 100 µM	86.6 µM	> 100 µM	> 100 µM					
Cc1ccc(N=C2C(=O)C3=C(OC(C)(C)CC3)c3ccccc32)cc1	3.69 µM	3.46 µM	1.05 µM	1.59 µM	0.346 µM	0.335 µM	3.08 µM	6.88 µM	3.96 µM	6.37 µM	2.7 µM						
C=CC[C@H](C)CCC(=O)N1[C@H]2CC3CC[C@@]2(CS1(=O)=O)C3(C)C	> 100 µM	> 100 µM	> 100 µM	> 100 µM	> 100 µM	> 100 µM	68.1 µM	> 100 µM	> 100 µM	> 100 µM	> 100 µM						
CCN(CC)C(=S)SS(=O)(=O)c1ccc([N+](=O)[O-])cc1	> 100 µM	> 100 µM		28.6 µM	54.7 µM	> 100 µM		> 100 µM	> 100 µM	> 100 µM	> 100 µM	40 µM	14.9 µM	23.2 µM	30.2 µM	> 100 µM	58.9 µM
S=c1[nH]c(=S)c2cc(Sc3ccc4[nH]c(=S)[nH]c(=S)c4c3)ccc2[nH]1	> 100 µM	73.2 µM	> 100 µM	> 100 µM	> 100 µM	> 100 µM	> 100 µM	51.4 µM	> 100 µM	68 µM	47.1 µM	82.8 µM					
CCOC(=O)C(NC(=O)Nc1ccc(Cl)c(Cl)c1)C(F)(F)F (stereo not given)	> 100 µM	> 100 µM	> 100 µM	> 100 µM	> 100 µM	> 100 µM	> 100 µM	> 100 µM		> 100 µM		> 100 µM					
Cn1c(-c2cccs2)cc(-c2cccs2)c1-c1ccsc1	> 100 µM	> 100 µM	> 100 µM	> 100 µM	> 100 µM	> 100 µM	> 100 µM	> 100 µM	> 100 µM	> 100 µM	> 100 µM	> 100 µM					
Cc1ccc2c(n1)C(=O)c1ccccc1C2=O	69 µM	89 µM	61.8 µM	> 75.5 µM	32.6 µM	> 59.9 µM	> 88.7 µM	38.1 µM	> 69 µM	> 100 µM	> 83.3 µM	> 87.1 µM					
CC(=O)Nc1ccc2c3c(cc(O)c2c1)N(C(=O)CCCCC(=O)Nc1ccc2c4c(cc(O)c2c1)N(C(=O)OC(C)(C)C)CC4CCl)CC3CCl (stereo not given)	> 55.6 µM	> 27.1 µM	> 33.2 µM	> 34.1 µM	2.95 µM	3.85 µM	> 34.4 µM	7.09 µM	> 33.8 µM	7.21 µM	> 56.8 µM	7.62 µM					
Nc1nc(Cl)cc(Nc2cc(Cl)cc(Cl)c2)n1	58.9 µM	45.4 µM	33.3 µM	35.4 µM	37.1 µM	48.8 µM	47.6 µM	48.6 µM	32.1 µM	40.4 µM	38.4 µM	33.9 µM					
CC(=O)OCC1=C(C)C(OC(=O)C(OC(C)=O)[C@@H](NC(=O)c2ccccc2)c2ccccc2)CCC1(C)C (stereo not given in full)	> 100 µM	> 100 µM	> 100 µM		> 100 µM	> 100 µM	> 100 µM	> 100 µM	> 100 µM	> 100 µM	> 100 µM	> 100 µM					
O=C(N/N=C\c1ccc2ccccc2c1)Nc1ccc([N+](=O)[O-])cc1	> 85 µM	> 77.3 µM	> 59 µM	> 95.8 µM	> 100 µM	> 70.6 µM	97.7 µM	> 72.3 µM	> 65.1 µM	> 89.9 µM	> 68.9 µM	> 69.7 µM					
